Laboratory results published in patent US20240116985A1, “STAPLED PEPTIDES AND METHODS THEREOF” (priority 2020, published 2024).

target: T1, full-length beta-Catenin (Uniprot ID P35222) (Homo sapiens, UniProt P35222); assay: Fluorescence polarization IC50 (beta-catenin / 5FAM-TCF4 10-53 competition); format: binding; details: fluorescence polarization, beta-catenin; read-out: FP EC50
T1 construct: 10 nM full-length beta-Catenin (Uniprot ID P35222)
T1 sequence (P35222 1-781): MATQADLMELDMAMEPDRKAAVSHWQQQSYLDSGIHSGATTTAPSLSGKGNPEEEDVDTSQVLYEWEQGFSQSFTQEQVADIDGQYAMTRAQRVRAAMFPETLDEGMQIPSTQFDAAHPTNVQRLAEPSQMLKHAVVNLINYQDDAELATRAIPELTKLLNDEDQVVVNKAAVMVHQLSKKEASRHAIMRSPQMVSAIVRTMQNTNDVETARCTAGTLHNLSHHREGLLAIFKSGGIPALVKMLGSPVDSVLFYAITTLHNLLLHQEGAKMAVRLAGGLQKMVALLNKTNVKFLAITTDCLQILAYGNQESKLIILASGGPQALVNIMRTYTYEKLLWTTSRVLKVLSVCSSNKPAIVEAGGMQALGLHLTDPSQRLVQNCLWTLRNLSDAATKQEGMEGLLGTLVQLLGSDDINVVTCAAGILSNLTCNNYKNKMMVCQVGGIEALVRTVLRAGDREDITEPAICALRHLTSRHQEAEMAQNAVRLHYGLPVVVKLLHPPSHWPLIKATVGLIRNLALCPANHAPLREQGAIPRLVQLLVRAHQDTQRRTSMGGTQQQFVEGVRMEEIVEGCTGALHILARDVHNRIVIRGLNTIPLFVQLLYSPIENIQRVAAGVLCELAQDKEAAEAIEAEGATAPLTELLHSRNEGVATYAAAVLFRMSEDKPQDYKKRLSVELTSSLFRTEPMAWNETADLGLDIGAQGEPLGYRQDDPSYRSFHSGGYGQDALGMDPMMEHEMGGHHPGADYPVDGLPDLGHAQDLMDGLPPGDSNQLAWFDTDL

Row | Structure (SMILES) | IC50
1 | CC(=O)N1CCC[C@]12CC=CCCCC1(CCCC=CCCCCCC[C@@](C)(C(=O)N[C@@H](Cc3ccsc3)C(=O)N[C@@H](Cc3csc4ccccc34)C(=O)N[C@@H](CCC(N)=O)C(N)=O)NC(=O)[C@H](CC(N)=O)NC(=O)[C@H](Cc3ccccc3)NC(=O)[C@H](C)NC(=O)[C@H](C)NC(=O)[C@H](CN(CC(=O)O)C(C)C)NC(=O)[C@H](CC(=O)O)NC1=O)NC(=O)[C@H](CC(C)(C)C)NC(=O)[C@H](CC(=O)O)NC2=O (stereo partly drawn) [I-1453, Ac-PL3-Asp-Npg-B5-Asp-[iPr]GA-Ala-Ala-Phe-Asn-S8-3Thi-BztA-Gln-NH2] | 52 nM

same assay, conditions: fluorescence polarization; read-out: beta-Catenin FP IC50

Row | Structure (SMILES) | IC50
2 | CC(=O)N1CCC[C@]12CC=CCCCC1(CCCC=CCCCCCC[C@@](C)(C(=O)N[C@@H](Cc3ccsc3)C(=O)N[C@@H](Cc3csc4ccccc34)C(=O)N[C@@H](CCC(N)=O)C(N)=O)NC(=O)[C@H](CC(N)=O)NC(=O)[C@H](Cc3ccccc3)NC(=O)[C@H](C)NC(=O)[C@H](C)NC(=O)[C@H](CN(CC(=O)O)C(C)C)NC(=O)[C@H](CC(=O)O)NC1=O)NC(=O)[C@H](CC(C)(C)C)NC(=O)[C@H](CC(=O)O)NC2=O (stereo partly drawn) [I-1453, Ac-PL3-Asp-Npg-B5-Asp-[iPr]GA-Ala-Ala-Phe-Asn-S8-3Thi-BztA-Gln-NH2] | 52 nM
3 | CC(=O)N1CCC[C@]12CC=CCCCC1(CCCC=CCCCOC(=O)N3CC[C@@](C(=O)N[C@@H](Cc4ccsc4)C(=O)N[C@@H](Cc4csc5ccccc45)C(=O)N[C@@H](Cc4c[nH]cn4)C(N)=O)(C3)NC(=O)[C@H](CCC(N)=O)NC(=O)[C@H](Cc3ccccc3)NC(=O)[C@H](C)NC(=O)[C@H](C)NC(=O)[C@H](CC(=O)O)NC(=O)[C@H](CC(=O)O)NC1=O)NC(=O)[C@H](CC(C)(C)C)NC(=O)[C@H](CC(=O)O)NC2=O (stereo partly drawn) [I-1459, Ac-PL3-Asp-Npg-B5-Asp-Asp-Ala-Ala-Phe-Gln-PyrS2-3Thi-BztA-His-NH2] | 5 nM
4 | CC(=O)N1CCC[C@]12CC=CCCCC1(CCCC=CCCCOC(=O)N3CC[C@@](C(=O)N[C@@H](Cc4ccsc4)C(=O)N[C@@H](Cc4csc5ccccc45)C(=O)N[C@@H](Cc4c[nH]cn4)C(N)=O)(C3)NC(=O)[C@H](CCC(N)=O)NC(=O)[C@H](Cc3ccccc3)NC(=O)[C@H](C)NC(=O)[C@H](C)NC(=O)[C@H](CC(=O)O)NC(=O)[C@H](CC(=O)O)NC1=O)NC(=O)[C@H](CC(C)(C)C)NC(=O)[C@H](CC(=O)O)NC2=O (stereo partly drawn) [I-1460, Ac-PL3-Asp-Npg-B5-Asp-Asp-Ala-Ala-Phe-Gln-PyrS2-3Thi-BztA-His-NH2] | 7 nM
5 | CC(=O)N1CCC[C@]12CC=CCCCC1(CCCC=CCCCOC(=O)N3CC[C@@](C(=O)N[C@@H](Cc4ccccc4Cl)C(=O)N[C@@H](Cc4csc5ccccc45)C(=O)N[C@@H](CCC(N)=O)C(N)=O)(C3)NC(=O)[C@H]([C@@H](C)O)NC(=O)[C@H](Cc3ccccc3)NC(=O)[C@H](C)NC(=O)[C@H](C)NC(=O)[C@H](CN(CC(=O)O)CC(F)(F)F)NC(=O)[C@H](CC(=O)O)NC1=O)NC(=O)[C@H](CC(C)(C)C)NC(=O)[C@H](CC(=O)O)NC2=O (stereo partly drawn) [I-1463, Ac-PL3-Asp-Npg-B5-Asp-TfeGA-Ala-Ala-Phe-Thr-PyrS2-2C1F-BztA-Gln-NH2] | 18 nM
6 | CC(=O)N1CCC[C@]12CCCCCCC1(CCCCCCCCOC(=O)N3CC[C@@](C(=O)N[C@@H](Cc4ccccc4Cl)C(=O)N[C@@H](Cc4csc5ccccc45)C(=O)N[C@@H](CCC(N)=O)C(N)=O)(C3)NC(=O)[C@H](CC(N)=O)NC(=O)[C@H](Cc3ccccc3)NC(=O)[C@H](C)NC(=O)[C@H](C)NC(=O)[C@H](CC(=O)O)NC(=O)[C@H](CC(=O)O)NC1=O)NC(=O)[C@H](CC(C)(C)C)NC(=O)[C@H](CC(=O)O)NC2=O (stereo partly drawn) [I-1464, Ac-PL3-Asp-Npg-B5-Asp-Asp-Ala-Ala-Phe-Asn-PyrS2-2C1F-BztA-Gln-NH2] | 168 nM
7 | CC(=O)N1CCC[C@]12CC=CCCCC1(CCCC=CCCCOC(=O)N3CC[C@@](C(=O)N[C@@H](Cc4ccsc4)C(=O)N[C@@H](Cc4csc5ccccc45)C(=O)N[C@@H](CCC(N)=O)C(N)=O)(C3)NC(=O)[C@H](CC(C)C)NC(=O)[C@H](Cc3ccccc3)NC(=O)[C@H](C)NC(=O)[C@H](C)NC(=O)[C@H](CC(=O)O)NC(=O)[C@H](CC(=O)O)NC1=O)NC(=O)[C@H](CCCCNC(=O)CC[C@@H](C)[C@H]1CC[C@H]3[C@@H]4CC[C@@H]5C[C@H](O)CC[C@]5(C)[C@H]4CC[C@]13C)NC(=O)[C@H](CC(=O)O)NC2=O (stereo partly drawn) [I-1469, Ac-PL3-Asp-[lithocholate]-Lys-B5-Asp-Asp-Ala-Ala-Phe-Leu-PyrS2-3Thi-BztA-Gln-NH2] | 95 nM
8 | CC(=O)N1CCC[C@]12CC=CCCCC1(CCCC=CCCCOC(=O)N3CC[C@@](C(=O)N[C@@H](Cc4ccsc4)C(=O)N[C@@H](Cc4csc5ccccc45)C(=O)N[C@@H](CCC(N)=O)C(N)=O)(C3)NC(=O)[C@H](CC(C)C)NC(=O)[C@H](Cc3ccccc3)NC(=O)[C@H](CCCCNC(=O)CC[C@@H](C)[C@H]3CC[C@H]4[C@@H]5CC[C@@H]6C[C@H](O)CC[C@]6(C)[C@H]5CC[C@]34C)NC(=O)[C@H](C)NC(=O)[C@H](CC(=O)O)NC(=O)[C@H](CC(=O)O)NC1=O)NC(=O)[C@H](CC(C)(C)C)NC(=O)[C@H](CC(=O)O)NC2=O (stereo partly drawn) [I-1473, Ac-PL3-Asp-Npg-B5-Asp-Asp-Ala-[lithocholate]-Lys-Phe-Leu-PyrS2-3Thi-BztA-Gln-NH2] | 224 nM
9 | CC(=O)N1CCC[C@]12CC=CCCCC1(CCCC=CCCCOC(=O)N3CC[C@@](C(=O)N[C@@H](Cc4ccsc4)C(=O)N[C@@H](Cc4csc5ccccc45)C(=O)N[C@@H](CCC(N)=O)C(N)=O)(C3)NC(=O)[C@H](CC(C)C)NC(=O)[C@H](Cc3ccccc3)NC(=O)[C@H](CCCCNC(=O)C34CC5(C)CC(C)(CC(C)(C5)C3)C4)NC(=O)[C@H](C)NC(=O)[C@H](CC(=O)O)NC(=O)[C@H](CC(=O)O)NC1=O)NC(=O)[C@H](CC(C)(C)C)NC(=O)[C@H](CC(=O)O)NC2=O (stereo partly drawn) [I-1475, Ac-PL3-Asp-Npg-B5-Asp-Asp-Ala-[Me3AdamantC]-Lys-Phe-Leu-PyrS2-3Thi-BztA-Gln-NH2] | 113 nM
10 | CC(=O)N1CCC[C@]12CC=CCCCC1(CCCC=CCCCOC(=O)N3CC[C@@](C(=O)N[C@@H](Cc4ccsc4)C(=O)N[C@@H](Cc4csc5ccccc45)C(=O)N[C@@H](CCC(N)=O)C(=O)N[C@@H](CCCCNC(=O)CC[C@@H](C)[C@H]4CC[C@H]5[C@@H]6CC[C@@H]7C[C@H](O)CC[C@]7(C)[C@H]6CC[C@]45C)C(N)=O)(C3)NC(=O)[C@H](CC(C)C)NC(=O)[C@H](Cc3ccccc3)NC(=O)[C@H](C)NC(=O)[C@H](C)NC(=O)[C@H](CC(=O)O)NC(=O)[C@H](CC(=O)O)NC1=O)NC(=O)[C@H](CC(C)(C)C)NC(=O)[C@H](CC(=O)O)NC2=O (stereo partly drawn) [I-1477, Ac-PL3-Asp-Npg-B5-Asp-Asp-Ala-Ala-Phe-Leu-PyrS2-3Thi-BztA-Gln-[lithocholate]-Lys-NH2] | 148 nM
11 | CC(=O)N1CCC[C@]12CC=CCCCC1(CCCC=CCCCOC(=O)N3CC[C@@](C(=O)N[C@@H](Cc4ccsc4)C(=O)N[C@@H](Cc4csc5ccccc45)C(=O)N[C@@H](CCC(N)=O)C(=O)N[C@@H](CCCCNC(=O)C45CC6(C)CC(C)(CC(C)(C6)C4)C5)C(N)=O)(C3)NC(=O)[C@H](CC(C)C)NC(=O)[C@H](Cc3ccccc3)NC(=O)[C@H](C)NC(=O)[C@H](C)NC(=O)[C@H](CC(=O)O)NC(=O)[C@H](CC(=O)O)NC1=O)NC(=O)[C@H](CC(C)(C)C)NC(=O)[C@H](CC(=O)O)NC2=O (stereo partly drawn) [I-1479, Ac-PL3-Asp-Npg-B5-Asp-Asp-Ala-Ala-Phe-Leu-PyrS2-3Thi-BztA-Gln-[Me3AdamantC]-Lys-NH2] | 173 nM
12 | CC(=O)N1CCC[C@]12CC=CCCCC1(CCCC=CCCCOC(=O)N3CC[C@@](C(=O)N[C@@H](Cc4ccsc4)C(=O)N[C@@H](Cc4csc5ccccc45)C(=O)N[C@@H](CCC(N)=O)C(N)=O)(C3)NC(=O)[C@H](CC(C)C)NC(=O)[C@H](Cc3ccccc3)NC(=O)[C@H](C)NC(=O)[C@H](CCCN3CCOCC3)NC(=O)[C@H](CC(=O)O)NC(=O)[C@H](CC(=O)O)NC1=O)NC(=O)[C@H](CC(C)(C)C)NC(=O)[C@H](CC(=O)O)NC2=O (stereo partly drawn) [I-1481, Ac-PL3-Asp-Npg-B5-Asp-Asp-MorphNva-Ala-Phe-Leu-PyrS2-3Thi-BztA-Gln-NH2] | 7 nM
